The nature of data set [1]: Ratio of drug uptake in tumor to blood in C57BL/6J mouse implanted with mouse B16F0 cells at 3.7 MBq, iv measured at 1 hr post injection. It counts as ADME, organism-based.
The nature of data set [2]: Drug uptake in muscles of C57BL/6J mouse implanted with mouse B16F0 cells at 3.7 MBq, iv measured at 24 hrs post injection by gamma counting analysis. To be noted: in vivo. It counts as ADME, organism-based, Muscle tissue.
Data set [3] is described as follows: Ratio of drug uptake in tumor to blood in C57BL/6J mouse implanted with mouse B16F0 cells at 3.7 MBq, iv measured at 3 hrs post injection. Type of data set: ADME, organism-based.
Data set [4] is described as follows: Drug uptake in kidney of C57BL/6J mouse implanted with mouse B16F0 cells at 3.7 MBq, iv measured at 72 hrs post injection by gamma counting analysis. It counts as ADME, organism-based. To be noted: in vivo.
Data set [5] is described as follows: Drug uptake in thyroid/submaxillary glands of C57BL/6J mouse implanted with mouse B16F0 cells at 3.7 MBq, iv measured at 72 hrs post injection by gamma counting analysis. It counts as ADME, organism-based, Submaxillary gland/Thyroid. To be noted: in vivo.
Data set [6] is described as follows: Drug uptake in tumor of C57BL/6J mouse implanted with mouse B16F0 cells at 3.7 MBq, iv measured at 6 hrs post injection by gamma counting analysis. Type of data set: ADME, organism-based, Neoplasm. To be noted: in vivo.
A short description of data set [7]: Drug uptake in intestine of C57BL/6J mouse implanted with mouse B16F0 cells at 3.7 MBq, iv measured at 1 hr post injection by gamma counting analysis. Type of data set: ADME, organism-based. To be noted: in vivo.
The nature of data set [8]: Drug uptake in bladder of C57BL/6J mouse implanted with mouse B16F0 cells at 3.7 MBq, iv measured at 1 hr post injection by scintigraphic imaging analysis. It counts as ADME, organism-based, Urinary bladder. To be noted: in vivo.
The nature of data set [9]: Drug uptake in liver of C57BL/6J mouse implanted with mouse B16F0 cells at 3.7 MBq, iv measured at 6 hrs post injection by gamma counting analysis. It counts as ADME, organism-based. To be noted: in vivo.
Data set [10] is described as follows: Drug level in urine of C57BL/6J mouse implanted with mouse B16F0 cells treated with [125I]IUdR-SS-MTP at 3.7 MBq, iv measured at 15 to 60 mins post injection by RP-HPLC analysis. Type of data set: ADME, organism-based. To be noted: in vivo.
Data set [11] in a line: Drug uptake in muscles of C57BL/6J mouse implanted with mouse B16F0 cells at 3.7 MBq, iv measured at 72 hrs post injection by gamma counting analysis. It counts as ADME, organism-based, Muscle tissue. To be noted: in vivo.
Data set [12] is described as follows: Drug level in tumor of C57BL/6J mouse implanted with mouse B16F0 cells treated with [125I]IUdR-SS-MTP at 3.7 MBq, iv measured at 15 to 60 mins post injection by RP-HPLC analysis. To be noted: in vivo. It counts as ADME, organism-based, Neoplasm.
Data set [13] is described as follows: Ratio of drug uptake in tumor to muscle in C57BL/6J mouse implanted with mouse B16F0 cells at 3.7 MBq, iv measured at 3 hrs post injection. It counts as ADME, organism-based. To be noted: in vivo.
Data set [14] in a line: Drug uptake in blood of C57BL/6J mouse implanted with mouse B16F0 cells at 3.7 MBq, iv measured at 24 hrs post injection by gamma counting analysis. Type of data set: ADME, organism-based. To be noted: in vivo.
Data set [15] in a line: Drug uptake in abdomen of C57BL/6J mouse implanted with mouse B16F0 cells at 3.7 MBq, iv measured at 1 hr post injection by scintigraphic imaging analysis. It counts as ADME, organism-based. To be noted: in vivo.
Data set [16] in a line: Drug uptake in stomach of C57BL/6J mouse implanted with mouse B16F0 cells at 3.7 MBq, iv measured at 3 hrs post injection by gamma counting analysis. To be noted: in vivo. Type of data set: ADME, organism-based.
Data set [17] can be described thus: Drug uptake in eyes of C57BL/6J mouse implanted with mouse B16F0 cells at 3.7 MBq, iv measured at 3 hrs post injection by gamma counting analysis. It counts as ADME, organism-based, Eye. To be noted: in vivo.
Data set [18] can be described thus: Drug level in blood of C57BL/6J mouse implanted with mouse B16F0 cells treated with [125I]IUdR-SS-MTP at 3.7 MBq, iv measured at 15 to 60 mins post injection by RP-HPLC analysis. Type of data set: ADME, organism-based. To be noted: in vivo.
Data set [19] is described as follows: Ratio of drug uptake in tumor to blood in C57BL/6J mouse implanted with mouse B16F0 cells at 3.7 MBq, iv measured at 6 hrs post injection. It counts as ADME, organism-based. To be noted: tumour.
Data set [20] in a line: Drug uptake in kidney of C57BL/6J mouse implanted with mouse B16F0 cells at 3.7 MBq, iv measured at 1 hr post injection by gamma counting analysis. Type of data set: ADME, organism-based. To be noted: in vivo.
The nature of data set [21]: Drug uptake in intestine of C57BL/6J mouse implanted with mouse B16F0 cells at 3.7 MBq, iv measured at 3 hrs post injection by gamma counting analysis. It counts as ADME, organism-based. To be noted: in vivo.
A short description of data set [22]: Ratio of drug uptake in tumor to blood in C57BL/6J mouse implanted with mouse B16F0 cells at 3.7 MBq, iv measured at 72 hrs post injection. Type of data set: ADME, organism-based.
A short description of data set [23]: Drug uptake in blood of C57BL/6J mouse implanted with mouse B16F0 cells at 3.7 MBq, iv measured at 1 hr post injection by gamma counting analysis. To be noted: in vivo. It counts as ADME, organism-based.
Data set [24] can be described thus: Ratio of drug uptake in tumor to muscle in C57BL/6J mouse implanted with mouse B16F0 cells at 3.7 MBq, iv measured at 24 hrs post injection. Type of data set: ADME, organism-based. To be noted: in vivo.
A short description of data set [25]: Drug uptake in eyes of C57BL/6J mouse implanted with mouse B16F0 cells at 3.7 MBq, iv measured at 24 hrs post injection by gamma counting analysis. Type of data set: ADME, organism-based, Eye. To be noted: in vivo.

The structures appear in SMILES notation.

Regarding `O=c1[nH]c(=O)n([C@H]2C[C@H](O)[C@@H](CO)O2)cc1[125I]`, in data set [1], the Kp – broadly, tissue or fluid exposure divided by exposure in the circulation – at 1 h came out at 0.89. Besides, the Drug uptake in data set [2] was 0.02 % ID/g; in [4] it was 0.08 % ID/g; in data set [5] it was 4.17 % ID/g; in data set [6], 1.19 % ID/g; in data set [7], 1.62 % ID/g; in data set [8] it was “Active”. The Drug uptake in [9] was 0.24 % ID/g; in data set [11], 0.03 % ID/g; in data set [14] it was 0.07 % ID/g; in [15] it was “Active”; in data set [16], 12.33 % ID/g; in data set [17] it was 0.43 % ID/g. Also, the Drug uptake in data set [20] stood at 2.57 % ID/g; in [21] it was 1.27 % ID/g; in data set [23], 3.17 % ID/g; in data set [25], 0.04 % ID/g. Besides, the Kp at 3 h in data set [3] is 1.14. Besides, the Drug metabolism entry in data set [10], in data set [12] and in data set [18] was “Metabolite_Detected” in each case. In addition, the Ratio is on record as 3.75 in data set [13], 2.58 in [19] and 24.35 in data set [24]. In addition, the partition ratio (Kp) at 72 h in data set [22] came out at 14.4.
In the case of `CCN(CC)CCNC(=O)c1cnc2cc(NC(=O)COc3ccc(SSCCOC(=O)O[C@H]4C[C@H](n5cc([125I])c(=O)[nH]c5=O)O[C@@H]4CO)cc3)ccc2n1`, the Kp at 1 h in data set [1] stood at 1.11. The Drug uptake in data set [2] was 0.04 % ID/g; in data set [4], 0.32 % ID/g; in data set [5], 11.36 % ID/g; in data set [6], 1.94 % ID/g; in [7] it was 2.51 % ID/g; in [8], “Active”. In addition, the Drug uptake in data set [9] was 0.47 % ID/g; in [11], 0.06 % ID/g; in data set [14], 0.13 % ID/g; in data set [15] it was “Active”; in data set [16], 27.07 % ID/g; in data set [17], 0.85 % ID/g. Further, the Drug uptake in data set [20] was 1.99 % ID/g; in [21], 2.88 % ID/g; in [23], 2.14 % ID/g; in [25], 0.09 % ID/g. Moreover, the partition ratio (Kp) at 3 h in data set [3] came out at 1.07. The Ratio in data set [13] is given as 5.59; in data set [19] it was 2.08; in [24], 18.24. Also, the Kp at 72 h in data set [22] came out at 1.12.

For the origin of these results see ChEMBL document CHEMBL3856199, “Melanoma-targeted delivery system (part 2): Synthesis, radioiodination and biological evaluation in B16F0 bearing mice” (Eur J Med Chem, 2016).
